Results taken from patent publication US9532988B2, “Pharmaceutical composition comprising a TRPA1 antagonist and an analgesic agent” (GLENMARK PHARMACEUTICALS S.A., priority 2013, dated 2017).
Where a name gives a salt, the structure may show the parent alone.

Experiments:
[1] = system: Freund's Complete Adjuvant (FCA)-induced inflammatory mechanical hyperalgesia in male SD rats; test: FCA-induced inflammatory mechanical hyperalgesia (Randall-Sellitto paw pressure);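 also: left hind paw withdrawal threshold (g) to rising pressure on an analgesymeter, FCA injected intraplantar 24 h earlier, thresholds taken before and 0.5, 1, 2 and 4 h after oral dosing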
Method: Materials: FCA containing 1 mg/ml of heat killed and dried Mycobacterium tuberculosis (H37RA strain) emulsified in mineral oil and mannide mono-oleate; Male SD rats weighing 170-220 g; Paw Pressure Analgesymeter (37215, Ugo Basile, Comerio, Italy); Compound I potassium; and Diclofenac sodium
Naïve withdrawal thresholds of the left hind paw to an increasing pressure (g) stimulus were measured in rats using the analgesymeter. FCA was injected (30 μl) into the plantar region of left paw of rats to induce the inflammatory hyperalgesia. Mechanical hyperalgesia (24 h after FCA injection) was assessed by measuring hind paw withdrawal thresholds.
The post-dose paw withdrawal thresholds were measured at 0.5, 1, 2 & 4 h after oral administration. The percentage (%) reversal of mechanical hyperalgesia was calculated as per standard procedure.
Naïve withdrawal thresholds of the left hind paw to an increasing pressure (g) stimulus were measured in rats using the analgesymeter. Freund's Complete Adjuvant (FCA) was injected (30 μl) into the plantar region of left paw of rats to induce the inflammatory hyperalgesia. Mechanical hyperalgesia (24 h after FCA injection) was assessed both pre- & post-dosing of drugs by measuring hind paw withdrawal thresholds. […] The post-dose paw withdrawal thresholds were measured at 0.5, 1, 2 & 4 h after oral administration. The % reversal of mechanical hyperalgesia was calculated.
Naïve withdrawal thresholds of the left hind paw to an increasing pressure (g) stimulus were measured in rats using the analgesymeter.

[2] = system: Monosodium Iodo Acetate (MIA)-osteoarthritis induced weight bearing deficit in male SD rats; test: MIA-osteoarthritis induced weight bearing deficit (incapacitance meter); format: in vivo, rat (Sprague-Dawley); conditions: 0.5-4 h post-dose, Example 3, Table 5, FIG. 5
Method: After recording basal weight borne by both hind limbs (naïve) using the incapacitance meter (IITC Inc), rats were briefly anaesthetized with 2% isoflurane and O2 mixture and given intraarticular (i.a.) injection of MIA (5 mg per rat in […]) through the intrapatellar ligament of the left knee (Combe et al., 2004). MIA was dissolved in 0.9% sterile saline and administered using a 26½ gauge needle. Contralateral knees were injected intra-articularly with 50 μl of 0.9% sterile saline. Weight bearing deficit in ipsilateral paw was assessed 20 h post MIA injection by measuring weight borne by both hind limbs.
On the day of the experiment (20 h after MIA injection), rats were evaluated for pre-dose weight bearing deficit to assess the effect of MIA. After regrouping the rats after randomization, the pre- & post-dose weight bearing deficit, was assessed for both hind limbs. Rats were orally dosed with vehicle, naproxen, compound I potassium salt and combination (Naproxen+Compound I—simultaneously). The effect of compound I, naproxen and their combination, in MIA-osteoarthritis induced weight bearing deficit in male SD rats, was evaluated using Incapacitance meter (IITC Inc.) fitted with a perspex chamber designed so that each hind paw rat rests on separate transducer pads to record animal's weight on each paw. […] The % reversal of weight bearing deficit was calculated as per standard procedure. […]

[3] = system: CCI-induced neuropathic hyperalgesia in male SD rats; test: Chronic constriction injury (CCI)-induced mechanical hyperalgesia; format: in vivo, rat (Sprague-Dawley); conditions: 0.5-4 h post-dose, Example 8, Table 11, FIG. 12
Method: The objective of this experiment was to study the combinational effect of Compound I and pregabalin in CCI-induced neuropathic hyperalgesia in male SD rats. Male SD rats weighing 180-220 g were grouped according to Table 11. Rats were anesthetized using ketamine/xylazine (40/5 mg/kg, i.p.) and the left sciatic nerve was exposed at mid-thigh level through a small incision. Four loose ligatures of 4-0 chromic cat gut at 1 mm space were placed around the sciatic nerve after the bifurcation of common sciatic nerve. After 6-7 days, mechanical hyperalgesia was assessed by measuring hind paw withdrawal thresholds to an increasing pressure (g) stimulus, using the Randall-Sellitto analgesymeter (Ugo Basile, Italy), fitted with a wedge-shaped probe.
Rats were orally dosed with vehicle, pregabalin, Compound I potassium salt and combination (Pregabalin+Compound I).

[4] = system: Streptozotocin (STZ)-induced diabetic peripheral neuropathic hyperalgesia in male SD rats; test: Streptozotocin-induced diabetic peripheral neuropathic hyperalgesia; format: in vivo, rat (Sprague-Dawley)
Method: (§1) Streptozotocin (STZ)-induced neuropathic hyperalgesia in rats is a model to screen potential therapeutics for diabetic painful neuropathy in human patients. Streptozotocin was dissolved in freshly prepared cold citrate buffer (0.1 M, pH—4.4). Diabetes was induced in overnight fasted male SD rats (weighing 250-300 g) by a single intraperitoneal injection of Streptozotocin (Sigma, 55 mg/kg, i.p). […] On the day of the experiment (13th day after STZ injection) rats were assessed for mechanical hyperalgesia using Randall-Sellito paw pressure analgesymeter. Animals were weighed and grouped as described in Table 9.
Rats were orally dosed with vehicle, duloxetine hydrochloride, Compound I potassium salt and combination (Duloxetine+Compound I).
as §1, with “pH —4.4).” for “pH—4.4).”, “Sprague Dawley” for “SD”, “rats” for “rats (weighing 250-300 g)”, “analgesymeter.” for “analgesymeter. Animals were weighed and grouped as described in Table 9.”
Rats were orally dosed with vehicle, different doses of duloxetine hydrochloride, Compound II disodium salt and combinations (duloxetine+Compound II—simultaneously). The post-dose paw withdrawal thresholds were measured at 1, 2 & 4 h after oral administration. […] Animals were weighed and grouped as described in Table 16.
Rats were orally dosed with vehicle, different doses of duloxetine hydrochloride, Compound III disodium salt and combinations (duloxetine+Compound III—simultaneously). […] Animals were weighed and grouped as described in Table 21.

[5] = system: motor coordination in rotarod test in male SD rats; test: Motor coordination in rotarod test; format: in vivo, rat (Sprague-Dawley)
Method: FIG. 9 is a bar graph that represents effect of Compound I (3 mg/kg), thiocolchicoside (0.01 mg/kg) and their combination on motor coordination in rotarod test in male SD rats.
FIG. 19 is a bar graph that represents effect of combination of thiocolchicoside (0.01 mg/kg) and Compound II (0.13 mg/kg) and their combination on motor coordination in rotarod test in male SD rats.

[6] = system: Spinal nerve ligation (SNL) injury-induced neuropathic hyperalgesia in male SD rats; test: Spinal nerve ligation (SNL)-induced mechanical hyperalgesia; format: in vivo, rat (Sprague-Dawley); conditions: 0.5-4 h post-dose, Example 15, Table 18, FIG. 20
Method: Spinal nerve ligation (SNL) injury in rats induces neuropathic mechanical hyperalgesia in this Chung's model. Rats were anesthetized using ketamine/xylazine (40/5 mg/kg, i.p.) and a 2-3 cm longitudinal incision was made in the lumbar spinal region, 5-6 mm lateral to the midline and above the lower lumbar vertebrae and the rostral sacrum, exposing the paraspinal muscles on the left side. The paraspinal muscles were isolated using blunt-tipped scissors for exposing L6 transverse process. The L6 transverse process was cut with the help of blunt-tipped scissor to visualize the left L5 spinal nerves. The nerves were cleaned from adhering tissue and were tightly ligated using 7.0 silk sutures (EP 1.5, Pearsalls Ltd) (Somerset, UK). The wound was closed with muscle & skin sutures and Povidone-iodine solution was applied every day till complete healing. […] Mechanical hyperalgesia was assessed by measuring hind paw withdrawal to an increasing pressure (g) stimulus, using an analgesymeter (Ugo Basile, Italy) fitted with a wedge-shaped probe.
Mechanical hyperalgesia was assessed both pre- & post-dosing of drugs by measuring hind paw withdrawal thresholds. […] The post-dose paw withdrawal thresholds were measured at 0.5, 1, 2 & 4 h after oral administration. The % reversal of mechanical hyperalgesia was calculated as per standard procedure.

[7] = system: FCA-induced thermal hyperalgesia in male SD rats; test: FCA-induced thermal hyperalgesia (Hargreaves apparatus); format: in vivo, rat (Sprague-Dawley); conditions: diclofenac sodium 6 mg/kg p.o. alone; 0.5-4 h post-dose; Example 16, Table 19, FIG. 22
Method: The % reversal of mechanical/thermal hyperalgesia was calculated.

[8] = system: MIA-osteoarthritis induced mechanical punctate allodynia in male SD rats; test: MIA-induced mechanical punctate allodynia (dynamic von Frey); format: in vivo, rat (Sprague-Dawley); conditions: naproxen 3 mg/kg p.o. alone; 0.5-4 h post-dose; Example 19, Table 22, FIG. 25
Method: MIA was dissolved in 0.9% sterile saline and administered using a 26½ gauge needle. Contralateral knees were injected intra-articularly with 50 μl of 0.9% sterile saline. On the day of the experiment (20 h after MIA injection), rats were evaluated for pre-dose mechanical punctate allodynia to assess the effect of MIA. After regrouping the rats after randomization, the pre- & post-dose mechanical allodynia was assessed for both hind paws. […] The % reversal of punctate allodynia was calculated as per standard procedure. Animals were weighed and grouped as described in Table 22.

**Q.** How did the “maximal % reversal of hyperalgesia” value ([1]; Compound I 1 mg/kg p.o. alone, Example 1, Table 2, FIG. 2) turn out when `Cn1c(=O)c2c(CC(=O)Nc3nc(-c4ccc(F)c(C(F)(F)F)c4F)cs3)csc2n(C)c1=O` [Compound I, N-{4-[2,4-difluoro-3-(trifluoromethyl)phenyl]-1,3-thiazol-2-yl}-2-(1,3-dimethyl-2,4-dioxo-1,2,3,4-tetrahydrothieno[2,3-d]pyrimidin-5-yl)acetamide] was run?
**A.** The value was 15%.

**Q.** What about the “maximal % reversal of hyperalgesia” value ([1]; Compound I 1 mg/kg p.o. alone, Example 2, Table 4, FIG. 4) of the same molecule?
**A.** Its value is 10%.

**Q.** What about the “maximal % reversal of hyperalgesia” value ([1]; Compound I 3 mg/kg p.o. alone, 0.5-4 h post-dose, Example 1, Table 1, FIG. 1) of the same molecule?
**A.** Its value is 21%.

**Q.** And the “maximal % reversal of hyperalgesia” value ([1]; Compound I 3 mg/kg p.o. alone, Example 2, Table 3, FIG. 3)?
**A.** The value was 25%.

**Q.** And the “maximal % reversal of hyperalgesia” value ([1]; Compound I 3 mg/kg p.o. alone, Example 4, Table 6, FIG. 6)?
**A.** Its value is 21%.

**Q.** And the “maximal % reversal of hyperalgesia” value ([1]; Compound I 3 mg/kg p.o. alone, Example 5, Table 7, FIG. 7)?
**A.** Its value is 25%.

**Q.** What about the “maximal % reversal of hyperalgesia” value ([1]; Compound I 3 mg/kg p.o. alone, Example 6, Table 8, FIG. 8) of the same molecule?
**A.** The value was 17%.

**Q.** What about the “maximal % reversal of weight bearing deficit” value ([2]; Compound I 1 mg/kg p.o. alone) of the same molecule?
**A.** The value was 8%.

**Q.** What about the “maximal % reversal of hyperalgesia” value ([3]; Compound I 3 mg/kg p.o. alone) of the same molecule?
**A.** Its value is 22%.

**Q.** What about the “maximal % reversal of hyperalgesia” value ([4]; Compound I 1 mg/kg p.o. alone, Example 7, Table 10, FIG. 11) of the same molecule?
**A.** Its value is 10%.

**Q.** And the “maximal % reversal of hyperalgesia” value ([4]; Compound I 3 mg/kg p.o. alone, 0.5-4 h post-dose, Example 7, Table 9, FIG. 10)?
**A.** The value was 26%.

**Q.** What does the source list for `Cn1nc2c(c1CC(=O)N=c1scc(-c3ccc(F)c(C(F)(F)F)c3F)n1COP(=O)(O)O)c(=O)n(C)c(=O)n2C` [Compound II, 4-(2,4-difluoro-3-(trifluoromethyl)phenyl)-2-((2-(2,5,7-trimethyl-4,6-dioxo-4,5,6,7-tetrahydro-2H-pyrazolo[3,4-d]pyrimidin-3-yl)acetyl)imino)thiazol-3 (2H)-yl)methyl dihydrogen phosphate]?
**A.** maximal % reversal of hyperalgesia ([1]; Compound II 0.13 mg/kg p.o. alone, Example 9, Table 12, FIG. 13): 21%; maximal % reversal of hyperalgesia ([1]; Compound II 0.13 mg/kg p.o. alone, Example 10, Table 13, FIG. 14): 22%; maximal % reversal of hyperalgesia ([1]; Compound II 0.13 mg/kg p.o. alone, Example 11, Table 14, FIG. 15): 14%; maximal % reversal of hyperalgesia ([1]; Compound II 0.13 mg/kg p.o. alone, Example 12, Table 15, FIG. 16): 22%; maximal % reversal of hyperalgesia ([1]; Compound II 0.13 mg/kg p.o. alone, Example 14, Table 17, FIG. 18): 14%; motor deficits (rotarod) ([5]; Compound II 0.13 mg/kg alone, n=8, Example 14, FIG. 19): did not produce any motor deficits; maximal % reversal of hyperalgesia ([4]; Compound II 0.04 mg/kg p.o. alone, 1, 2 & 4 h post-dose, Example 13, Table 16, FIG. 17): 13%; maximal % reversal of hyperalgesia ([6]; Compound II 0.13 mg/kg p.o. alone): 18%

**Q.** With `O=C(O)Cc1ccccc1Nc1c(Cl)cccc1Cl` [diclofenac sodium] as the molecule, how does the “maximal % reversal of hyperalgesia” value ([1]; diclofenac sodium 6 mg/kg p.o. alone, 0.5-4 h post-dose, Example 1, Table 1, FIG. 1) read?
**A.** Its value is 15%.

**Q.** What about the “maximal % reversal of hyperalgesia” value ([1]; diclofenac sodium 6 mg/kg p.o. alone, Example 9, Table 12, FIG. 13) of the same molecule?
**A.** The value was 14%.

**Q.** What about the “maximal % reversal of mechanical hyperalgesia” value ([1]; diclofenac sodium 6 mg/kg p.o. alone, Example 16, Table 19, FIG. 21) of the same molecule?
**A.** Its value is 23%.

**Q.** What about the “maximal % reversal of hyperalgesia” value ([1]; diclofenac sodium 8 mg/kg p.o. alone, Example 1, Table 2, FIG. 2) of the same molecule?
**A.** Its value is 39%.

**Q.** What about the “maximal % reversal of thermal hyperalgesia” value [7] of the same molecule?
**A.** Its value is 27%.

**Q.** For `CNCC[C@H](Oc1cccc2ccccc12)c1cccs1` [duloxetine hydrochloride], which “maximal % reversal of hyperalgesia” value ([4]; duloxetine hydrochloride 3 mg/kg p.o. alone, 0.5-4 h post-dose, Example 7, Table 9, FIG. 10) is on record?
**A.** Its value is 23%.

**Q.** What about the “maximal % reversal of hyperalgesia” value ([4]; duloxetine hydrochloride 3 mg/kg p.o. alone, 0.5-4 h post-dose, Example 18, Table 21, FIG. 24) of the same molecule?
**A.** The value was 20%.

**Q.** What about the “maximal % reversal of hyperalgesia” value ([4]; duloxetine hydrochloride 3 mg/kg p.o. alone, 1, 2 & 4 h post-dose, Example 13, Table 16, FIG. 17) of the same molecule?
**A.** Its value is 17%.

**Q.** What about the “maximal % reversal of hyperalgesia” value ([4]; duloxetine hydrochloride 10 mg/kg p.o. alone, Example 7, Table 10, FIG. 11) of the same molecule?
**A.** Its value is 35%.

**Q.** Which results are given for `Cc1cnc(NC(=O)C2=C(O)c3ccccc3S(=O)(=O)N2C)s1` [meloxicam]?
**A.** maximal % reversal of hyperalgesia ([1]; meloxicam 0.5 mg/kg p.o. alone, Example 4, Table 6, FIG. 6): 21%; maximal % reversal of hyperalgesia ([1]; meloxicam 0.5 mg/kg p.o. alone, Example 11, Table 14, FIG. 15): 19%

**Q.** Which results are given for `COc1ccc2cc([C@H](C)C(=O)O)ccc2c1` [naproxen]?
**A.** maximal % reversal of hyperalgesia ([1]; naproxen 3 mg/kg p.o. alone, Example 2, Table 3, FIG. 3): 23%; maximal % reversal of hyperalgesia ([1]; naproxen 3 mg/kg p.o. alone, Example 10, Table 13, FIG. 14): 18%; maximal % reversal of mechanical hyperalgesia ([1]; naproxen 3 mg/kg p.o. alone, Example 17, Table 20, FIG. 23): 17%; maximal % reversal of hyperalgesia ([1]; naproxen 5 mg/kg p.o. alone, Example 2, Table 4, FIG. 4): 32%; maximal % reversal of mechanical punctate allodynia [8]: 18%; maximal % reversal of weight bearing deficit ([2]; naproxen 10 mg/kg p.o. alone): 39%

**Q.** With `CC(=O)Nc1ccc(O)cc1` [paracetamol] as the molecule, how does the “maximal % reversal of hyperalgesia” value ([1]; paracetamol 60 mg/kg p.o. alone, Example 5, Table 7, FIG. 7) read?
**A.** Its value is 28%.

**Q.** What about the “maximal % reversal of hyperalgesia” value ([1]; paracetamol 60 mg/kg p.o. alone, Example 12, Table 15, FIG. 16) of the same molecule?
**A.** Its value is 17%.

**Q.** For `CC(C)C[C@H](CN)CC(=O)O` [pregabalin], which “maximal % reversal of hyperalgesia” value ([3]; pregabalin 1 mg/kg p.o. alone) is on record?
**A.** The value was 14%.

**Q.** What about the “maximal % reversal of hyperalgesia” value ([6]; pregabalin 1 mg/kg p.o. alone) of the same molecule?
**A.** The value was 20%.

**Q.** How did the “maximal % reversal of hyperalgesia” value ([1]; thiocolchicoside 0.01 mg/kg p.o. alone, Example 6, Table 8, FIG. 8) turn out when `COc1c(O[C@@H]2O[C@H](CO)[C@@H](O)[C@H](O)[C@H]2O)cc2c(c1OC)-c1ccc(SC)c(=O)cc1[C@@H](NC(C)=O)CC2` [thiocolchicoside] was run?
**A.** The value was 15%.

**Q.** And the “maximal % reversal of hyperalgesia” value ([1]; thiocolchicoside 0.01 mg/kg p.o. alone, Example 14, Table 17, FIG. 18)?
**A.** The value was 14%.

**Q.** And the “motor deficits (rotarod)” value ([5]; thiocolchicoside 0.01 mg/kg alone, Example 6, FIG. 9)?
**A.** Its value is “did not produce any motor deficits”.

**Q.** What about the “motor deficits (rotarod)” value ([5]; thiocolchicoside 0.01 mg/kg alone, n=8, Example 14, FIG. 19) of the same molecule?
**A.** Its value is “did not produce any motor deficits”.
